# Reference: patent US11412771B2, “Composition to improve athletic performance by supporting muscle protein synthesis and mental focus” (The Amino Company LLC, priority 2019, dated 2022)
# Read-outs that look alike come from different tables or passages of the source.
# How the values were obtained:
# [1] = test system: nitric oxide (NO) synthesis; test: In vivo kinetics of nitric oxide (NO) metabolism after citrulline ingestion (stable isotope tracer); parameters: species or system human; settings: 3 grams; for NO synthesis rate after citrulline ingestion: after 3 hours; for De novo arginine synthesis after citrulline ingestion: over 3 hours
# Protocol: FIGS. 6A-B depicts graphs showing plasma arginine concentration (FIG. 6A) and nitric oxide (NO) synthesis (FIG. 6B) in human subjects over 3 hours following citrulline ingestion (3 grams) wherein the subjects were either elderly (n=8, 77±9 years of age, 93±4 kg) or young individuals (n=8, 27±9 years of age, 70±5 kg).
# EXAMPLE 5. A kinetic study with a stable isotope tracer method was performed to determine in vivo kinetics of nitric oxide (NO) metabolism in relation to citrulline ingestion in older adult humans (n=8, 77±9 years, 93±4 kg) and in young adult humans (n=8, 27±9 years, 70±5 kg). In the fasted state, NO synthesis (expressed per kg fat free mass) was ˜50% lower in older vs. young adults and was related to a decreased rate of appearance of the NO precursor arginine. Citrulline ingestion (3 grams) stimulated de novo arginine synthesis in both older (6.88±0.83 to 35.40±4.90 μmol·kg body wt^−1·h^−1) and, to a greater extent, in young adults (12.02±1.01 to 66.26±4.79 μmol·kg body wt^−1 h^−1) over 3 hours (FIG. 6A). NO synthesis rate increased correspondingly in older (0.17±0.01 to 2.12±0.36 μmol·kg body wt^−1·h^−1) and, to a greater extent, in young adults (0.36±0.04 to 3.57±0.47 μmol·kg body wt^−1·h^−1) after 3 hours (FIG. 6B). […] Because arginine can play a role in stimulating muscle protein synthesis as well as increasing blood flow via NO synthesis, the data strongly support citrulline ingestion for acute as well as long-term promotion of muscle function.
# [2] = type: in vivo, human
# Protocol: FIG. 2 depicts a graph showing leucine, lysine, and phenylalanine oxidation in human subjects at rest and during prolonged aerobic exercise (approximately 30% VO2 max for 105 minutes). Error bars represent standard error of mean (SE) assessed via ANOVA.
# EXAMPLE 2. […] 1982, 52(2):458-66 and Wolfe et al., J APPL PHYSIOL RESPIR ENVIRON EXERC PHYSIOL. 1984, 56(1):221-9, both the disclosures of which are herein incorporated by reference in their entirety. Total leucine oxidation increased from 0.38±0.05 to 1.41±0.14 μmol·kg^−1·min^−1 during exercise due to increases in the oxidation of plasma leucine (150%) and intracellular leucine (600%) (FIG. 2). […] These findings provided a rational for providing extra leucine, as well as other branched chain amino acids, before exercise.
smiles,measurement,setting,value
"NC(=O)NCCC[C@H](N)C(=O)O [Citrulline, citrulline]",NO synthesis rate after citrulline ingestion,"[1]; older adults, basal 0.17±0.01",2.12±0.36 μmol·kg body wt^−1·h^−1
same,De novo arginine synthesis after citrulline ingestion,"[1]; older adults, basal 6.88±0.83",35.40±4.90 μmol·kg body wt^−1·h^−1
same,NO synthesis rate after citrulline ingestion,"[1]; young adults, basal 0.36±0.04",3.57±0.47 μmol·kg body wt^−1·h^−1
same,De novo arginine synthesis after citrulline ingestion,"[1]; young adults, basal 12.02±1.01",66.26±4.79 μmol·kg body wt^−1 h^−1
CC(C)C[C@H](N)C(=O)O [leucine],Total leucine oxidation,"[2]; human, in vivo",0.38 ± 0.05 µmol/kg/min
same,Increase in the oxidation of intracellular leucine,"[2]; human, in vivo, 105 min",600%
same,Increase in the oxidation of plasma leucine,"[2]; human, in vivo, 105 min",150%
same,Total leucine oxidation,"[2]; human, in vivo, 105 min",1.41 ± 0.14 µmol/kg/min
same,Plasma leucine flux,[2]; not told,"decreased slightly, but not significantly"
NCCCC[C@H](N)C(=O)O [lysine],"Oxidation, change from rest to exercise",[2]; in vivo,did not change significantly
N[C@@H](Cc1ccccc1)C(=O)O [phenylalanine],"Oxidation, change from rest to exercise",[2]; in vivo,did not change significantly
